From PubChem BioAssay AID330 (DTP/NCI, 2004) come the findings set out here.

Values joined by “and” are separate entries in the source; they are usually repeats but may differ in a detail not shown here. Equal entries are not always repeated. Toxic doses and inconclusive results are not listed.

In this assay the test system is P388 leukemia ip, CD2F1 mice, survival T/C. The assay is described as follows: NCI In Vivo Anticancer Drug Screen. Data for tumor model P388 Leukemia (intraperitoneal) in CD2F1 (CDF1) mice. Conditions: endpoint: median survival time, higher = longer survival. The gist of the method:
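Mice carrying the transplanted tumor received test compound or vehicle. Survival was recorded in each group, and the value is the treated-group measurement divided by that of the vehicle-treated control group.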

Setting [1] is: dose: 50.0 mg/kg/injection, schedule: Q01DX009 (ip), vehicle: saline.
Where [2] appears, read: dose: 100.0 mg/kg/injection, schedule: Q01DX009 (ip), vehicle: saline.
The mark [3] stands for this setting: dose: 100.0 mg/kg/injection, schedule: Q04DX003 (ip), vehicle: saline.
The mark [4] stands for this setting: dose: 200.0 mg/kg/injection, schedule: Q04DX003 (ip), vehicle: saline with Tween-80.
[5] abbreviates: dose: 200.0 mg/kg/injection, schedule: Q04DX003 (ip), vehicle: saline.
The mark [6] stands for this setting: dose: 50.0 mg/kg/injection, schedule: Q01DX005 (ip), vehicle: Klucel (hydroxypropylcellulose) (HPC).
Where [7] appears, read: dose: 100.0 mg/kg/injection, schedule: Q01DX005 (ip), vehicle: Klucel (hydroxypropylcellulose) (HPC).
Where [8] appears, read: dose: 200.0 mg/kg/injection, schedule: Q01DX005 (ip), vehicle: Klucel (hydroxypropylcellulose) (HPC).
Where [9] appears, read: dose: 100.0 mg/kg/injection, schedule: Q04DX003 (ip), vehicle: saline with Tween-80.
[10] abbreviates: dose: 50.0 mg/kg/injection, schedule: Q01DX005 (ip), vehicle: saline with Tween-80.

As for `COc1cc2cc3c4cc(OC)c(OC)cc4cc[n+]3c(C)c2cc1OC` (tested in a mixture with another compound), the T/C is 154 % of control (dose: 12.5 mg/kg/injection, schedule: Q01DX009 (ip), vehicle: water); 106 % of control (dose: 16.0 mg/kg/injection, schedule: Q01DX009 (ip), vehicle: water); 108 % of control (dose: 16.0 mg/kg/injection, schedule: Q01DX009 (sc), vehicle: water); 158 % of control and 163 % of control and 172 % of control (dose: 25.0 mg/kg/injection, schedule: Q01DX009 (ip), vehicle: water); 118 % of control (dose: 25.9 mg/kg/injection, schedule: Q04DX003 (ip), vehicle: water); 105 % of control (dose: 32.0 mg/kg/injection, schedule: Q01DX009 (ip), vehicle: water). Moreover, the T/C was 118 % of control (dose: 32.0 mg/kg/injection, schedule: Q01DX009 (sc), vehicle: water); 123 % of control (dose: 43.2 mg/kg/injection, schedule: Q04DX003 (ip), vehicle: water); 191 % of control under setting [1]; 200 % of control (dose: 50.0 mg/kg/injection, schedule: Q01DX009 (ip), vehicle: water); 152 % of control and 171 % of control (dose: 50.0 mg/kg/injection, schedule: Q04DX003 (ip), vehicle: water); 123 % of control (dose: 64.0 mg/kg/injection, schedule: Q01DX009 (sc), vehicle: water). In addition, the T/C reads like this: under setting [2], 90 % of control; (dose: 100.0 mg/kg/injection, schedule: Q01DX009 (ip), vehicle: water) 200 % of control; under setting [3], 150 % of control; (dose: 100.0 mg/kg/injection, schedule: Q04DX003 (ip), vehicle: water) 158 % of control and 162 % of control and 187 % of control; (dose: 128.0 mg/kg/injection, schedule: Q01DX009 (ip), vehicle: water) 118 % of control; (dose: 128.0 mg/kg/injection, schedule: Q01DX009 (sc), vehicle: water) 115 % of control. The T/C reads like this: under setting [4], 183 % of control; under setting [5], 184 % of control; (dose: 256.0 mg/kg/injection, schedule: Q01DX009 (ip), vehicle: water) 105 % of control; (dose: 512.0 mg/kg/injection, schedule: Q01DX009 (ip), vehicle: water) 89 % of control.

For the molecule `c1nc(Sc2ncnc3nc[nH]c23)c2[nH]cnc2n1`, the T/C was 100 % of control (dose: 180.0 mg/kg/injection, schedule: Q01DX009 (ip), vehicle: Klucel (hydroxypropylcellulose) (HPC)); 100 % of control (dose: 266.0 mg/kg/injection, schedule: Q01DX009 (ip), vehicle: Klucel (hydroxypropylcellulose) (HPC)); 100 % of control (dose: 400.0 mg/kg/injection, schedule: Q01DX009 (ip), vehicle: Klucel (hydroxypropylcellulose) (HPC)).

For the molecule `CCCCN1C(=O)CC(SC2CC(=O)N(CCCC)C2=O)C1=O` (stereo not drawn), the T/C is, setting by setting: under setting [6], 97 % of control; under setting [7], 86 % of control; under setting [8], 103 % of control.

In the case of `COC(=O)N1c2ccccc2N(C(=O)OC)C1C#N`, the T/C (dose: 60.0 mg/kg/injection, schedule: Q01DX005 (ip), vehicle: saline with Tween-80) was 108 % of control; the T/C (dose: 120.0 mg/kg/injection, schedule: Q01DX005 (ip), vehicle: saline with Tween-80) was 98 % of control; the T/C (dose: 240.0 mg/kg/injection, schedule: Q01DX005 (ip), vehicle: saline with Tween-80) was 112 % of control.

As for `CCCCN(C)N=Nc1c(C(N)=O)n[nH]c1C`, the T/C reads like this: (dose: 44.0 mg/kg/injection, schedule: Q04DX003 (ip), vehicle: saline with Tween-80) 122 % of control; under setting [9], 150 % of control; under setting [4], 90 % of control.

As to `C[C@]12C=CC(=O)C=C1CC[C@@H]1[C@@H]2[C@@H](O)C[C@@]2(C)[C@H]1CC[C@]2(O)C(=O)CO`, the T/C by setting is: under setting [6], 106 % of control; under setting [7], 100 % of control; under setting [8], 91 % of control; (dose: 400.0 mg/kg/injection, schedule: Q01DX005 (ip), vehicle: Klucel (hydroxypropylcellulose) (HPC)) 105 % of control.

On to `CC(C)SC(=S)Nc1ccc(Cl)c([N+](=O)[O-])c1`, for which the T/C under setting [1] is 99 % of control; the T/C under setting [2] was 93 % of control; the T/C (dose: 200.0 mg/kg/injection, schedule: Q01DX009 (ip), vehicle: saline) is 103 % of control.

In the case of `CCN1CC2(OC(=O)c3ccccc3NC(C)=O)CCC(OC)C34C1C(CC23)C1(O)CC(OC)C2CC4C1(O)C2OC` (stereo not drawn), the T/C by setting is: (dose: 4.0 mg/kg/injection, schedule: Q01DX009 (ip), vehicle: Klucel (hydroxypropylcellulose) (HPC)) 92 % of control; (dose: 8.0 mg/kg/injection, schedule: Q01DX009 (ip), vehicle: Klucel (hydroxypropylcellulose) (HPC)) 94 % of control; (dose: 16.0 mg/kg/injection, schedule: Q01DX009 (ip), vehicle: Klucel (hydroxypropylcellulose) (HPC)) 97 % of control; (dose: 32.0 mg/kg/injection, schedule: Q01DX009 (ip), vehicle: Klucel (hydroxypropylcellulose) (HPC)) 91 % of control.

For `CN1c2ccccc2C(C)(C)C2Nc3c(C#N)cnc(N)c3C21` (stereo not drawn), the T/C by setting is: (dose: 50.0 mg/kg/injection, schedule: Q04DX003 (ip), vehicle: saline with Tween-80) 96 % of control; under setting [9], 105 % of control; under setting [4], 109 % of control.

In the case of `CCC1SC(=S)NC1=O` (stereo not drawn), the T/C was 92 % of control under setting [10] and 92 % of control (dose: 100.0 mg/kg/injection, schedule: Q01DX005 (ip), vehicle: saline with Tween-80).

In the case of `CSC(=S)c1ccc(NSc2ccccc2[N+](=O)[O-])cc1`, the T/C is, setting by setting: under setting [3], 113 % of control; under setting [5], 110 % of control; (dose: 400.0 mg/kg/injection, schedule: Q04DX003 (ip), vehicle: saline) 93 % of control.

Consider `CC(=O)C[n+]1ccccc1Sc1ccccc1C`, for which, under setting [10], the T/C was 103 % of control.

As to `Clc1ccc2c(ccc3ccc(Cl)nc32)n1`, the T/C by setting is: (dose: 25.0 mg/kg/injection, schedule: Q04DX002 (ip), vehicle: saline with Tween-80) 100 % of control; (dose: 50.0 mg/kg/injection, schedule: Q04DX002 (ip), vehicle: saline with Tween-80) 98 % of control; (dose: 100.0 mg/kg/injection, schedule: Q04DX002 (ip), vehicle: saline with Tween-80) 89 % of control.

Take `O=C1OC(c2ccc(Cl)c(Cl)c2)C(=O)C1=O` (stereo not drawn): the T/C is 86 % of control (dose: 3.75 mg/kg/injection, schedule: Q01DX005 (ip), vehicle: saline with Tween-80); 91 % of control (dose: 7.5 mg/kg/injection, schedule: Q01DX005 (ip), vehicle: saline with Tween-80); 92 % of control (dose: 15.0 mg/kg/injection, schedule: Q01DX005 (ip), vehicle: Klucel + Tween-80); 102 % of control (dose: 15.0 mg/kg/injection, schedule: Q01DX005 (ip), vehicle: saline with Tween-80).

In the case of `COc1ccc2c(CCN(/C=C/C(C)=O)C(C)=O)cn(C(C)=O)c2c1`, the T/C (dose: 12.5 mg/kg/injection, schedule: Q01DX005 (ip), vehicle: Klucel (hydroxypropylcellulose) (HPC)) was 109 % of control; the T/C (dose: 25.0 mg/kg/injection, schedule: Q01DX005 (ip), vehicle: Klucel (hydroxypropylcellulose) (HPC)) is 104 % of control; the T/C under setting [6] is 100 % of control.

For the molecule `COc1c(C=O)c2c(c(OC)c1OC)-c1ccc(OC)c(=O)cc1[C@@H](NC(C)=O)CC2`, the T/C is 151 % of control (dose: 0.39 mg/kg/injection, schedule: Q01DX009 (ip), vehicle: Klucel (hydroxypropylcellulose) (HPC)); 154 % of control (dose: 0.78 mg/kg/injection, schedule: Q01DX009 (ip), vehicle: Klucel (hydroxypropylcellulose) (HPC)); 160 % of control and 175 % of control (dose: 1.56 mg/kg/injection, schedule: Q01DX009 (ip), vehicle: Klucel (hydroxypropylcellulose) (HPC)); 180 % of control and 194 % of control (dose: 3.12 mg/kg/injection, schedule: Q01DX009 (ip), vehicle: Klucel (hydroxypropylcellulose) (HPC)); 205 % of control (dose: 6.25 mg/kg/injection, schedule: Q01DX009 (ip), vehicle: Klucel (hydroxypropylcellulose) (HPC)); 102 % of control (dose: 12.5 mg/kg/injection, schedule: Q01DX009 (ip), vehicle: Klucel (hydroxypropylcellulose) (HPC)).

Turning to `CCOC(=O)Nc1cc(N(C)CC(O)c2ccccc2)c(N)c(N)n1` (stereo not drawn), the T/C was 104 % of control (dose: 50.0 mg/kg/injection, schedule: Q01DX001 (ip), vehicle: saline with Tween-80); 94 % of control (dose: 100.0 mg/kg/injection, schedule: Q01DX001 (ip), vehicle: saline with Tween-80); 94 % of control (dose: 200.0 mg/kg/injection, schedule: Q01DX001 (ip), vehicle: saline with Tween-80).
